# According to patent publication US4025533A, “5-Bromo-5-nitro-2-alkylsubstituted-1,3-dioxane” (Eli Lilly and Company, priority 1976, dated 1977):
# Tests used:
# [1] = prior art; cited from earlier work
# Propionibacterium acnes = assay: conventional tube dilution test, anaerobic; assay type: cell-based; details: Cutibacterium acnes, medium pH 6.9, read-out: minimum inhibitory concentration
# Method: For example, 5-bromo-2-methyl-5-nitro-1,3-dioxane (Compound C) was tested against Propionibacterium acnes (formerly called Corynebacterium acnes) in a conventional tube dilution test. A simultaneous test was run utilizing 2-bromo-2-nitropropane,1,3-diol (Compound A) and 5-bromo-5-nitro-1,3-dioxane (Compound B) as the antimicrobials.
# The test against Propionibacterium acnes were run anaerobically in the following medium:
# (§1) Distilled water q.s. -- 1000 ml
# The pH of the medium was 6.9
# Rhodotorula glutinis = assay: In Vitro Antifungal Activity, agar plates (Table III); assay type: cell-based; details: 72 h, three days at 25° C., pH 5.7, read-out: Minimum Inhibitory Concentration
# Method: (§2) Compounds A, B, and C were tested further to determine antifungal activity. The compounds were added to melted and cooled (50° C.) agar to obtain concentrations of 100, 50, 25, 12.5, 6.25 and 0.0 mcg per ml of agar. After the agar solidified, sterile cotton swabs were dipped in stock suspensions of the organisms (10^6 organisms per ml of physiological saline) and then streaked across the agar. After three days' incubation at 25° C., concentrations which prevented growth were recorded as the minimal inhibitory concentration. The composition of the medium used in this study was as follows:
# (§3) Calcium carbonate -- 0.5 g
# (§4) V-8 juice filtrate -- 200.0 ml
# as §1
# (§5) The pH was adjusted to 5.7.
# [2] = tested on: Saccharomyces pastorianus; assay: as above; assay type: cell-based; details: 72 h, three days at 25° C., pH 5.7, read-out: Minimum Inhibitory Concentration
# Method: as §2, §3, §4, §1, §5
# Colletotrichum phomoides = assay: as above; assay type: cell-based; details: 72 h, three days at 25° C., pH 5.7, read-out: Minimum Inhibitory Concentration
# Method: as §2, §3, §4, §1, §5
# Chaetomium globosum = assay: as above; assay type: cell-based; details: 72 h, three days at 25° C., pH 5.7, read-out: Minimum Inhibitory Concentration
# Method: as §2, §3, §4, §1, §5
# [3] = tested on: Fusarium oxysporum cubense; assay: as above; assay type: cell-based; details: 72 h, three days at 25° C., pH 5.7, read-out: Minimum Inhibitory Concentration
# Method: as §2, §3, §4, §1, §5
# Botrytis cinerea = assay: as above; assay type: cell-based; details: 72 h, three days at 25° C., pH 5.7, read-out: Minimum Inhibitory Concentration
# Method: as §2, §3, §4, §1, §5
# Aspergillus terreus = assay: as above; assay type: cell-based; details: 72 h, three days at 25° C., pH 5.7, read-out: Minimum Inhibitory Concentration
# Method: as §2, §3, §4, §1, §5
# Penicillium notatum = assay: as above; assay type: cell-based; details: Penicillium chrysogenum, 72 h, three days at 25° C., pH 5.7, read-out: Minimum Inhibitory Concentration
# Method: as §2, §3, §4, §1, §5
# Microsporum gypseum = assay: as above; assay type: cell-based; details: Nannizzia gypsea, 72 h, three days at 25° C., pH 5.7, read-out: Minimum Inhibitory Concentration
# Method: as §2, §3, §4, §1, §5
# Aspergillus fumigatus = assay: as above; assay type: cell-based; details: 72 h, three days at 25° C., pH 5.7, read-out: Minimum Inhibitory Concentration
# Method: as §2, §3, §4, §1, §5
# Pseudomonas aeruginosa [4] = assay: conventional tube dilution test (Table I); assay type: cell-based; details: 48 h, antibiotic Number 3 medium, two days at 37° C., read-out: Minimum Inhibitory Concentration
# Method: (§6) The in vitro antimicrobial activities of Compounds A, B and C, 5-bromo-2-ethyl-5-nitro-1,3-dioxane (Compound D), 5-bromo-5-nitro-2-n-propyl-1,3-dioxane (Compound E), and 5-bromo-2-isopropyl-5-nitro-1,3-dioxane (Compound F) were determined concurrently against Pseudomonas aeruginosa, Staphylococcus aureus, Escherichia coli, and Streptococcus faecalis in a conventional tube dilution test. The medium used was antibiotic Number 3 [CFR 436.102(3)] and the concentration of organisms was 10^4 organisms per ml of medium, with each tube being inoculated with 0.1 ml of inoculum. The figures shown in Table I are the lowest concentrations in mcg of active compound/ml of medium where no growth occurred in the medium after two days' incubation at 37° C.
# Streptococcus faecalis [5] = assay: conventional tube dilution test (Table I); assay type: cell-based; details: Enterococcus faecalis, 48 h, antibiotic Number 3 medium, two days at 37° C., read-out: Minimum Inhibitory Concentration
# Method: as §6
# Staphylococcus aureus [6] = assay: conventional tube dilution test (Table I); assay type: cell-based; details: 48 h, antibiotic Number 3 medium, two days at 37° C., read-out: Minimum Inhibitory Concentration
# Method: as §6
# Escherichia coli [7] = assay: conventional tube dilution test (Table I); assay type: cell-based; details: 48 h, antibiotic Number 3 medium, two days at 37° C., read-out: Minimum Inhibitory Concentration
# Method: as §6
# Pseudomonas aeruginosa [8] = assay: agar plate system (Table II); assay type: cell-based; details: antibiotic medium 1, 72 hours at 30° C., read-out: Minimum Inhibitory Concentration
# Method: (§7) The antimicrobial activities of Compounds A, B, C, D, E and F were also determined in an agar plate system. The compounds were added to melted and cooled (50° C.) agar in twofold concentration increments from 50 mcg per ml of agar to 1.56 mcg per ml of agar. Antibiotic medium 1 [CFR 436.102(1)] was used for testing of Pseudomonas aeruginosa, Staphylococcus aureus, Escherichia coli, and Streptococcus faecalis, but antibiotic medium 22 [CFR 436.102(22)] was used for testing of Candida albicans and Aspergillus niger. Organism suspensions containing 10^6 organisms per ml were used as stock suspensions. Sterile cotton swabs were dipped in the suspensions and then streaked across the solidified agar. The figures shown in Table II were the lowest concentrations at which no growth occurred after 72 hours at 30° C. These values were interpreted as the minimum inhibitory concentration (MIC).
# Streptococcus faecalis [9] = assay: agar plate system (Table II); assay type: cell-based; details: Enterococcus faecalis, antibiotic medium 1, 72 hours at 30° C., read-out: Minimum Inhibitory Concentration
# Method: as §7
# Candida albicans [10] = assay: agar plate system (Table II); assay type: cell-based; details: antibiotic medium 22, 72 hours at 30° C., read-out: Minimum Inhibitory Concentration
# Method: as §7
# Staphylococcus aureus [11] = assay: agar plate system (Table II); assay type: cell-based; details: antibiotic medium 1, 72 hours at 30° C., read-out: Minimum Inhibitory Concentration
# Method: as §7
# Aspergillus niger [12] = assay: agar plate system (Table II); assay type: cell-based; details: antibiotic medium 22, 72 hours at 30° C., read-out: Minimum Inhibitory Concentration
# Method: as §7
# Escherichia coli [13] = assay: agar plate system (Table II); assay type: cell-based; details: antibiotic medium 1, 72 hours at 30° C., read-out: Minimum Inhibitory Concentration
# Method: as §7
# human skin [14] = details: prior art; cited from earlier work
# Pseudomonas aeruginosa [15] = assay: in vitro agar plate determination (Table VII); assay type: cell-based; details: agar plates at 10, 25 and 50 mcg. per ml., 24 hours, read-out: Minimum Inhibitory Concentration
# Method: (§8) The antimicrobial activities of […] (Compound G) were determined concurrently with 5-bromo-2-methyl-5-nitro-1,3-dioxane (Compound C) and 5-bromo-5-nitro-1,3-dioxane (Compound B) against the same six organisms shown in Table II. […] The tests were in vitro determinations utilizing agar plates containing the active compound at 10, 25 and 50 mcg. per ml. of agar. The organisms, at concentrations of 10^6 organisms per milliliter, were streaked on the solidified agar. The plates were incubated for 24 hours and the presence or absence of growth noted. The minimum inhibitory concentration (MIC) was determined as the lowest active compound concentration in the agar where no growth occurred.
# Streptococcus faecalis [16] = assay: in vitro agar plate determination (Table VII); assay type: cell-based; details: Enterococcus faecalis; agar plates at 10, 25 and 50 mcg. per ml., 24 hours; read-out: Minimum Inhibitory Concentration
# Method: as §8
# Candida albicans [17] = assay: in vitro agar plate determination (Table VII); assay type: cell-based; details: agar plates at 10, 25 and 50 mcg. per ml., 24 hours, read-out: Minimum Inhibitory Concentration
# Method: as §8
# Staphylococcus aureus [18] = assay: in vitro agar plate determination (Table VII); assay type: cell-based; details: agar plates at 10, 25 and 50 mcg. per ml., 24 hours, read-out: Minimum Inhibitory Concentration
# Method: as §8
# Aspergillus niger [19] = assay: in vitro agar plate determination (Table VII); assay type: cell-based; details: agar plates at 10, 25 and 50 mcg. per ml., 24 hours, read-out: Minimum Inhibitory Concentration
# Method: as §8
# Escherichia coli [20] = assay: in vitro agar plate determination (Table VII); assay type: cell-based; details: agar plates at 10, 25 and 50 mcg. per ml., 24 hours, read-out: Minimum Inhibitory Concentration
# Method: as §8
# human skin [21] = assay: Human Repeated Insult Patch Test, induction series (irritation); details: in vivo
# Text: The following protocol was followed in testing each compound.
# Two-hundred subjects were employed in each investigation.
# human skin [22] = details: in vivo
# Text: Two-hundred subjects were employed in each investigation. The repeated insult technique was used in the patch test. A different group of subjects were utilized for each evaluation.
# The technique used for the patch test called for a series of 9 induction patches of each test material to be placed on each of the subjects. The series was followed two weeks later by a single "challenge" patch of each test material to detect skin sensitization.
# The series of nine induction patches was applied on Monday, Wednesday and Thursday and allowed to contact the skin for 24 hours, after which time they were removed and the skin sites graded for irritation. Thursday's patches were placed immediately after removal and grading of Wednesday's applications. After the ninth induction patches had been placed, a non-patching period of 2 weeks elapsed before the challenge patches were applied to detect sensitization reactions. For this 24-hour patch, a new skin site was used. This site was invariably chosen adjacent to an induction site; i.e., one where repeated applications had been made during the series of nine induction patches. The challenge applications were graded at 24 and 72 hours after application.
# The skin applications for each material were made using oval-shaped adhesive patches (1" × 11/4") with circular gauze centers. The gauze centers were coated with approximately 0.03 ml. of the respective test material just prior to application.
# The scoring criteria used for skin irritation reactions and in evaluating the sensitization evidenced on the challenge application follows:
# Four separate formulations of each compound were tested along with two formulations of parabens.
# A reading of 5 or more on the 8-point scale was deemed to be indicative of the development of skin sensitization to the test compound.
# [23] = chemical stability towards pH / alkali; assay type: physicochemical; details: pH 5-9
# [24] = solubility in water and mineral oil; assay type: physicochemical; details: compared with other species of the invention
# microorganisms = assay: antimicrobial tests on isomeric mixtures; assay type: cell-based; details: one high in the cis- form, the other high in the trans- form
# Method: The novel compounds of this embodiment of the present invention, exemplified in Examples 1, 2, 3, and 4 can exist as cis- and trans-isomers. The procedure outlined in Example 1 produces a ratio of isomers of about 9:1. It is the intent of this invention to include both geometric isomers as chemical entities as well as the isomeric mixture. […] Consequently, the utility tests described hereinafter were conducted employing the isomeric mixture (about 9:1) prepared as detailed in Example 1.
MIC (Propionibacterium acnes),MIC (Rhodotorula glutinis),MIC [2],MIC (Colletotrichum phomoides),MIC (Chaetomium globosum),MIC [3],MIC (Botrytis cinerea),MIC (Aspergillus terreus),MIC (Penicillium notatum),MIC (Microsporum gypseum),MIC (Aspergillus fumigatus),MIC (Pseudomonas aeruginosa [4]),MIC (Streptococcus faecalis [5]),MIC (Staphylococcus aureus [6]),MIC (Escherichia coli [7]),MIC (Pseudomonas aeruginosa [8]),MIC (Streptococcus faecalis [9]),MIC (Candida albicans [10]),MIC (Staphylococcus aureus [11]),MIC (Aspergillus niger [12]),Structure (SMILES),also measured
6.25 µg/mL,100 µg/mL,> 100 µg/mL,> 100 µg/mL,< 6.25 µg/mL,25 µg/mL,25 µg/mL,25 µg/mL,100 µg/mL,50 µg/mL,< 6.25 µg/mL,12.5 µg/mL,25 µg/mL,25 µg/mL,12.5 µg/mL,6.25 µg/mL,12.5 µg/mL,> 50 µg/mL,12.5 µg/mL,> 50 µg/mL,"O=[N+]([O-])C(Br)(CO)CO [Compound A, 2-bromo-2-nitropropane-1,3-diol]",chemical stability towards alkali [1]: chemically unstable towards alkali; MIC (Escherichia coli [13]): 6.25 µg/mL
6.25 µg/mL,50 µg/mL,100 µg/mL,100 µg/mL,< 6.25 µg/mL,< 6.25 µg/mL,50 µg/mL,25 µg/mL,25 µg/mL,50 µg/mL,< 6.25 µg/mL,25 µg/mL,25 µg/mL,25 µg/mL,25 µg/mL,12.5 µg/mL,12.5 µg/mL,12.5 µg/mL,12.5 µg/mL,25 µg/mL,"O=[N+]([O-])C1(Br)COCOC1 [Compound B, 5-bromo-5-nitro-1,3-dioxane, reference compound]",chemical stability towards alkali [1]: does possess chemical stability towards alkali; irritation and sensitization in human subjects (human skin [14]): induces irritation and sensitization in a significant number of human subjects; MIC (Pseudomonas aeruginosa [15]): 25 µg/mL; MIC (Streptococcus faecalis [16]): < 10 µg/mL; MIC (Candida albicans [17]): 25 µg/mL; MIC (Staphylococcus aureus [18]): 25 µg/mL; MIC (Aspergillus niger [19]): 50 µg/mL; MIC (Escherichia coli [20]): < 10 µg/mL; irritation readings compared with the 2-methyl derivative (human skin [21]): more severe; MIC (Escherichia coli [13]): 6.25 µg/mL; sensitizing effect (human skin [22]): marked sensitizing effect; subjects evaluated as being sensitive on the challenge test (human skin [22]): 11 subjects

Structure (SMILES),MIC (Propionibacterium acnes),MIC (Rhodotorula glutinis),MIC [2],MIC (Colletotrichum phomoides),MIC (Chaetomium globosum),MIC [3],MIC (Botrytis cinerea),MIC (Aspergillus terreus),MIC (Penicillium notatum),MIC (Microsporum gypseum),MIC (Aspergillus fumigatus),MIC (Pseudomonas aeruginosa [4]),MIC (Streptococcus faecalis [5]),MIC (Staphylococcus aureus [6]),MIC (Escherichia coli [7]),MIC (Pseudomonas aeruginosa [8]),MIC (Streptococcus faecalis [9]),MIC (Candida albicans [10]),MIC (Staphylococcus aureus [11]),MIC (Aspergillus niger [12]),also measured
"CC1OCC(Br)([N+](=O)[O-])CO1 (stereo not shown) [Compound C, 5-bromo-2-methyl-5-nitro-1,3-dioxane]",6.25 µg/mL,100 µg/mL,> 100 µg/mL,100 µg/mL,< 6.25 µg/mL,12.5 µg/mL,12.5 µg/mL,12.5 µg/mL,25 µg/mL,100 µg/mL,< 6.25 µg/mL,25 µg/mL,25 µg/mL,25 µg/mL,25 µg/mL,25 µg/mL,12.5 µg/mL,6.25 µg/mL,12.5 µg/mL,12.5 µg/mL,"MIC (Pseudomonas aeruginosa [15]): 25 µg/mL; MIC (Streptococcus faecalis [16]): 12.5 µg/mL; MIC (Candida albicans [17]): 6.25 µg/mL; MIC (Staphylococcus aureus [18]): 12.5 µg/mL; MIC (Aspergillus niger [19]): 12.5 µg/mL; MIC (Escherichia coli [20]): 12.5 µg/mL; chemical stability at pH [23]: chemically stable at pH's from 5.0 to 9.0; MIC (Escherichia coli [13]): 12.5 µg/mL; solubility in water and oil, qualitative [24]: superior solubility in water and oil; subjects evaluated as being sensitive on the challenge test (human skin [22]): none; antimicrobial activity of isomeric mixtures (microorganisms): equal activity"
